Molecular target: P. falciparum apicoplast DNA polymerase (Pf-apPOL) (Plasmodium falciparum, UniProt Q8ILY1)
Test: Fluorescence-based high-throughput DNA polymerase assay (molecular beacon), primary screen and dose-response
Format: biochemical
Protocol: The HT assay employs a molecular beacon, a stem-loop DNA template with a Cy3 dye and the Black Hole Quencher on the 3′ and 5′ ends of the DNA, respectively. Pf-apPOL concentration is based on a calculated absorptivity of ε280 = 56750 M^−1 cm^−1. Reactions were carried out at 25 °C, using Corning 3575 […] (well-volume, 20 µL). Assays testing for compound inhibition composed of reaction buffer (pH 7.9 in 50 mM potassium acetate, 20 mM Tris-acetate and 10 mM magnesium acetate), Pf-apPOL (20 nM), DNA substrate (20 nM), dNTPs (6 µM), and compound (10 µM in DMSO). The DNA and nucleotide substrates (dNTPs) were at concentrations of 20 nM and 6 µM, respectively, in the assay. Pf-apPOL was incubated in the reaction buffer with dNTPs and the compound of interest (10 µM, in the assay) at 25 °C for 10 min. The DNA substrate was then added and the reaction was allowed to proceed for 90 min at 25 °C.
Each assay plate contained 16 negative controls (no Pf-apPOL, DMSO present) and 16 positive controls (Pf-apPOL present, no DMSO). The fluorescence of each well was determined using a BioTek Synergy Neo fluorescence plate reader using excitation and emission wavelengths of 555 and 570 nm, respectively.
In the above, Min is the average of fluorescence emission of the negative controls (substrate only), Max the average fluorescence emission from the positive controls (enzyme + substrate), and Test the emission from the assays in the presence of compounds (enzyme + compound + substrates). […] […] The IC50 of each compound was determined using Equation (2): (2) IC50= Vmax/(1+ (I/IC50)^n)
In the above, n measures cooperativity, with n > 1 indicating synergistic binding of more than a single molecule of the compound.
To identify apPOL inhibitors we utilised our previously developed high-throughput DNA polymerase assay. The HT assay is based on a molecular beacon DNA template that forms a stem-loop with a Cy3 dye and the Black Hole Quencher on the 3′ and 5′ ends of the DNA, respectively. DNA polymerase activity extends an annealed primer through the stem region, displacing the fluorophore from the quencher, thereby increasing its fluorescence (Figure 1(A)). The assay accurately recapitulates the kinetic behaviour of apPOL, as measured through more conventional low-throughput gel-based assays. The Z′ factor for the assay described here was 0.9 across all plates (data not shown).
Figure 1. High-throughput screening. (A) The fluorescent-based DNA polymerase assay used to screen the compound libraries. The DNA template strand is a hairpin loop with a primer annealed to the loop. The 3’ end of the primer is 11 bases away from the 6 bp duplex. Strand displacement activity of the DNA polymerase separates the Cy3 dye from the Black hole quencher leading to an increase in fluorescent signal. (B) The high-throughput assay workflow. The DNA polymerase is incubated with […] compound for 10 min prior to addition of the hairpin substrate. The reaction is quenched at 3 different time points and the fluorescent signal is measured and % inhibition is determined using the provided equation.

[1] = supplemental file 2, sheet IC50 nontoxic compounds; Pf-apPOL

Chain of P. falciparum apicoplast DNA polymerase (Pf-apPOL) (Q8ILY1 entry or part of it): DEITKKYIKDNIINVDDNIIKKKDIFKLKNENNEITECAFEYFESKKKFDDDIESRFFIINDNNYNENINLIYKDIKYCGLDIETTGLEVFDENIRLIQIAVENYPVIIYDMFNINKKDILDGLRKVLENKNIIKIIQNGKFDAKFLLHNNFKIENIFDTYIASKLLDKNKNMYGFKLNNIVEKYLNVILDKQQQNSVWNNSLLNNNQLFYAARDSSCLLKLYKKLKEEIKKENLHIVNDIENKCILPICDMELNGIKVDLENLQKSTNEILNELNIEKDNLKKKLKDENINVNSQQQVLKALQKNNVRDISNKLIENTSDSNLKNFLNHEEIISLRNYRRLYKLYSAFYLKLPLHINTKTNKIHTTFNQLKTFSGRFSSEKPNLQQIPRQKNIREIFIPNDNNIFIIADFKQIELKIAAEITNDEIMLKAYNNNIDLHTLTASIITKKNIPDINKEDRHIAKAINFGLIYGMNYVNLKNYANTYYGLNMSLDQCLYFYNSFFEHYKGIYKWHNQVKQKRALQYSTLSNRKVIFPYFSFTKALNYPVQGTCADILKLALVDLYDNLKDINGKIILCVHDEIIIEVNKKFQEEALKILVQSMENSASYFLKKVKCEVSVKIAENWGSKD

CC(=O)Nc1cc(C(=O)NC(C)C)c2ccc(C)nc2c1 [KU0206312]
% inhibition Apo pol 10' (DRC-1; 10'; concentration 2.5): -0.09953%
% inhibition Apo pol 10' (DRC-1; 10'; concentration 5): 7.573%
% inhibition Apo pol 10' (DRC-1; 10'; concentration 10): 27.7087%
% inhibition Apo pol 10' (DRC-1; 10'; concentration 20): 47.6334%
% inhibition Apo pol 10' (DRC-1; 10'; concentration 40): 73.4276%
% inhibition Apo pol 10' (DRC-1; 10'; concentration 80): 85.3418%
% inhibition Apol 90' (DRC-1; 90'; concentration 2.5): -3.317%
% inhibition Apol 90' (DRC-1; 90'; concentration 5): -1.224%
% inhibition Apol 90' (DRC-1; 90'; concentration 10): 13.9494%
% inhibition Apol 90' (DRC-1; 90'; concentration 20): 30.2375%
% inhibition Apol 90' (DRC-1; 90'; concentration 40): 59.3171%
% inhibition Apol 90' (DRC-1; 90'; concentration 80): 84.495%
% inhibition apPOL 180' (DRC-1; 180'; concentration 2.5): -3.391%
% inhibition apPOL 180' (DRC-1; 180'; concentration 5): -3.035%
% inhibition apPOL 180' (DRC-1; 180'; concentration 10): 6.928%
% inhibition apPOL 180' (DRC-1; 180'; concentration 20): 18.5029%
% inhibition apPOL 180' (DRC-1; 180'; concentration 40): 47.7981%
% inhibition apPOL 180' (DRC-1; 180'; concentration 80): 83.4711%
% inhibition Apo pol 5' (DRC-2; 5'; concentration 2.5): 8%
% inhibition Apo pol 5' (DRC-2; 5'; concentration 5): 15%
% inhibition Apo pol 5' (DRC-2; 5'; concentration 10): 35%
% inhibition Apo pol 5' (DRC-2; 5'; concentration 20): 45%
% inhibition Apo pol 5' (DRC-2; 5'; concentration 40): 47%
% inhibition Apo pol 5' (DRC-2; 5'; concentration 80): 43%
% inhibition Apol 40' (DRC-2; 40'; concentration 2.5): 8%
% inhibition Apol 40' (DRC-2; 40'; concentration 5): 13%
% inhibition Apol 40' (DRC-2; 40'; concentration 10): 34%
% inhibition Apol 40' (DRC-2; 40'; concentration 20): 51%
% inhibition Apol 40' (DRC-2; 40'; concentration 40): 65%
% inhibition Apol 40' (DRC-2; 40'; concentration 80): 67%
% inhibition ApPOL 90' (DRC-2; 90'; concentration 2.5): 6.64%
% inhibition ApPOL 90' (DRC-2; 90'; concentration 5): 11%
% inhibition ApPOL 90' (DRC-2; 90'; concentration 10): 31%
% inhibition ApPOL 90' (DRC-2; 90'; concentration 20): 50%
% inhibition ApPOL 90' (DRC-2; 90'; concentration 40): 68%
% inhibition ApPOL 90' (DRC-2; 90'; concentration 80): 73%
% inhibition apPOL 180' (DRC-2; 180'; concentration 2.5): 2%
% inhibition apPOL 180' (DRC-2; 180'; concentration 5): 5%
% inhibition apPOL 180' (DRC-2; 180'; concentration 10): 20%
% inhibition apPOL 180' (DRC-2; 180'; concentration 20): 41%
% inhibition apPOL 180' (DRC-2; 180'; concentration 40): 67%
% inhibition apPOL 180' (DRC-2; 180'; concentration 80): 78%
% inhibition Apo pol 5' (conc. 2.5; 5'; DRC-2): 8%
% inhibition Apol 40' (conc. 2.5; 40'; DRC-2): 8%
% inhibition apPOL 180' (conc. 40; 180'; DRC-2): 67%
% inhibition Apol 40' (conc. 80; 40'; DRC-2): 67%
DNA Pol (primary screen value by plate and well; 90 min, 10 µM): 32
DNA Pol (primary screen value of the 186 hits; unit not given; 90 min, 10 µM): 32

O=C1CSC2=NC3=C(CCc4ccccc43)C(c3cccs3)N12 (stereo not drawn) [Molecule 59]
IC50 [1]: 14.7 µM

Cc1cc(C)c2c(O)nc(SCC(=O)c3ccc(O)c(O)c3)nc2n1 [Molecule 88]
IC50 [1]: < 2.5 µM

O=C(O)CC1SC(c2ccc3c(c2)OCO3)=NC1=O (stereo not drawn) [Molecule 69, OC(=O)CC1SC(=NC1=O)c1ccc2c(c1)OCO2]
DNA Pol ('DNA Pol'; screening value, unit not given; 90 min, 10 µM): 73
% inhibition Apo pol 10' (DRC-1; 10'; concentration 2.5): 9.093%
% inhibition Apo pol 10' (DRC-1; 10'; concentration 5): 10.6697%
% inhibition Apo pol 10' (DRC-1; 10'; concentration 10): 24.5481%
% inhibition Apo pol 10' (DRC-1; 10'; concentration 20): 37.0336%
% inhibition Apo pol 10' (DRC-1; 10'; concentration 40): 59.8933%
% inhibition Apo pol 10' (DRC-1; 10'; concentration 80): 73.2432%
% inhibition Apol 90' (DRC-1; 90'; concentration 2.5): 0.8612%
% inhibition Apol 90' (DRC-1; 90'; concentration 5): 2.259%
% inhibition Apol 90' (DRC-1; 90'; concentration 10): 10.3106%
% inhibition Apol 90' (DRC-1; 90'; concentration 20): 18.6533%
% inhibition Apol 90' (DRC-1; 90'; concentration 40): 43.3337%
% inhibition Apol 90' (DRC-1; 90'; concentration 80): 58.9692%
% inhibition apPOL 180' (DRC-1; 180'; concentration 2.5): -4.62%
% inhibition apPOL 180' (DRC-1; 180'; concentration 5): -4.006%
% inhibition apPOL 180' (DRC-1; 180'; concentration 10): 2.363%
% inhibition apPOL 180' (DRC-1; 180'; concentration 20): 9.6301%
% inhibition apPOL 180' (DRC-1; 180'; concentration 40): 35.5256%
% inhibition apPOL 180' (DRC-1; 180'; concentration 80): 52.4762%
% inhibition Apo pol 5' (DRC-2, 5', concentration 2.5): 14%
% inhibition Apo pol 5' (DRC-2, 5', concentration 5): 9%
% inhibition Apo pol 5' (DRC-2, 5', concentration 10): 20%
% inhibition Apo pol 5' (DRC-2, 5', concentration 20): 29%
% inhibition Apo pol 5' (DRC-2, 5', concentration 40): 41%
% inhibition Apo pol 5' (DRC-2, 5', concentration 80): 49%
% inhibition Apol 40' (DRC-2, 40', concentration 2.5): 9%
% inhibition Apol 40' (DRC-2, 40', concentration 5): 7%
% inhibition Apol 40' (DRC-2, 40', concentration 10): 16%
% inhibition Apol 40' (DRC-2, 40', concentration 20): 23%
% inhibition Apol 40' (DRC-2, 40', concentration 40): 37%
% inhibition Apol 40' (DRC-2, 40', concentration 80): 51%
% inhibition ApPOL 90' (DRC-2, 90', concentration 2.5): 5.65%
% inhibition ApPOL 90' (DRC-2, 90', concentration 5): 4%
% inhibition ApPOL 90' (DRC-2, 90', concentration 10): 10%
% inhibition ApPOL 90' (DRC-2, 90', concentration 20): 16%
% inhibition ApPOL 90' (DRC-2, 90', concentration 40): 33%
% inhibition ApPOL 90' (DRC-2, 90', concentration 80): 50%
% inhibition apPOL 180' (DRC-2, 180', concentration 2.5): -0.895%
% inhibition apPOL 180' (DRC-2, 180', concentration 5): -1.56%
% inhibition apPOL 180' (DRC-2, 180', concentration 10): 3%
% inhibition apPOL 180' (DRC-2, 180', concentration 20): 7%
% inhibition apPOL 180' (DRC-2, 180', concentration 40): 23%
% inhibition apPOL 180' (DRC-2, 180', concentration 80): 43%
% inhibition Apol 40' (conc 2.5 (unit not given); 40'; DRC-2): 9%
% inhibition Apo pol 5' (conc 5 (unit not given); 5'; DRC-2): 9%
% inhibition Apol 40' (conc 5 (unit not given); 40'; DRC-2): 7%
% inhibition Apol 40' (conc 10 (unit not given); 40'; DRC-2): 16%
% inhibition Apol 40' (conc 20 (unit not given); 40'; DRC-2): 23%
% inhibition ApPOL 90' (conc 20 (unit not given); 90'; DRC-2): 16%
% inhibition apPOL 180' (conc 20 (unit not given); 180'; DRC-2): 7%
% inhibition apPOL 180' (conc 40 (unit not given); 180'; DRC-2): 23%
DNA Pol (primary screen hit value, DNA Pol (186 hits); 90 min, 10 µM): 73
